Measurements taken from patent US6558664B1, “Chondrocyte cell-lines” (Cell Factors plc, priority 1994, dated 2003).

System: chondrocyte cell-lines cloned from foetal femur
Assay: Von Kossa staining of calcium mineralisation in monolayer cultures of immortalised foetal femur chondrocyte cell-lines
Assay type: cell-based, human
Conditions: three chondrocyte clones incubated at the oncogene's non-permissive temperature (39° C.) in the presence of 1,25(OH)2D3; in its absence cells do not actively mineralise calcium; FIG. 5
Description: Foetal rib or femur tissue was taken at 7-9 weeks of gestation and placed in tissue culture flasks (Costar Limited, UK) in Eagle's minimum essential medium (Gibco Co Limited, UK) containing antibiotics and L-glutamine as well as 10% heat in activated foetal bovine serum. Cultured cells were maintained in a humidified atmosphere at 5% CO2 and 37° C. and medium changed at regular intervals (2-3 days). As is usual for primary cultures of resected tissue, cells within the sample move out from the body of the tissue, adhere to the flask surface, and replicate, potentially, to cover the whole surface of the tissue culture dish. After an initial period of, say, 2 weeks in primary culture. The cell population was transfected with a temperature sensitive mutant of the simium virus-40 derived large tumour (T) antigen using retroviral transduction.
In short, amphotropically packaged retroviral particles comprising this construct and a resistance marker to geneticin, G418 (kindly donated by Dr M O'Hare, Institute of Cancer Research, Royal Marsden Hospital, Lincoln's Inn, Sutton, Surrey, alternatively, essentially the same construct expressing a temperature sensitive mutant of the SV40-T oncogene was kindly donated by Professor Phil Gaillimore, CRC Laboratories, University of Birmingham, UK) was added to the medium together with polybrene (Sigma Chemicals) to a final concentration of 0.8 mg/ml. […]

## C=C1/C(=C\C=C2/CCC[C@]3(C)[C@@H]([C@H](C)CCCC(C)(C)O)CC[C@@H]23)C[C@@H](O)C[C@@H]1O [1,25(OH)2D3]
  calcium mineralisation (Von Kossa staining): each clone actively mineralises calcium
